Drawing on patent US20070249590A1, “Substituted indolo[2,3-a]pyrrolo[3,4-c]carbazole compounds useful in treating kinase disorders” (priority 2005, published 2007), this text covers IC50 for 20 compounds.

Molecules are shown by their SMILES. Some results are limits rather than exact numbers.

This test has as its target T1, JAK3 (JH1 and JH2 domain) (Homo sapiens, UniProt P52333).
T1 sequence (P52333 521-1111 limits assumed): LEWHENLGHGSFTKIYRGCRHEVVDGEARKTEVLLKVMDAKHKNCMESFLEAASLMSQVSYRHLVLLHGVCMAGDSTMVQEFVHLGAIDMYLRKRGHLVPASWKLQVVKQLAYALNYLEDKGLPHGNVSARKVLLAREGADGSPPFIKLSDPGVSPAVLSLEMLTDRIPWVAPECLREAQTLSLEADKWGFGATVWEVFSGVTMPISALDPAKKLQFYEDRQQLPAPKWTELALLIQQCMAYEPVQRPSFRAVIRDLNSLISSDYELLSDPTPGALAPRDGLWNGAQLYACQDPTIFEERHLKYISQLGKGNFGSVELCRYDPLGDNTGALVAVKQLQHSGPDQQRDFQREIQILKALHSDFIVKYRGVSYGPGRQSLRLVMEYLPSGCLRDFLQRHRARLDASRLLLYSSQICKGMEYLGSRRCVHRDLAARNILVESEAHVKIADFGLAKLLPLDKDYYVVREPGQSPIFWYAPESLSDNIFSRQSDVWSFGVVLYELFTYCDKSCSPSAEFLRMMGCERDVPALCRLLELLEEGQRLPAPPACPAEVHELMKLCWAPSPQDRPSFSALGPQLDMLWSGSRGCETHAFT
The test can be described thus: JAK3 Kinase Assay (ELISA of peptide substrate phosphorylation). In kind it is biochemical. The note with it: purified JAK3 enzyme, 10 μM ATP, biotinylated peptide substrate, 1 hour at room temperature. The procedure, abridged: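 Sf21-baculovirus-expressed JAK3 (JH1+JH2), glutathione-bead purified, with biotinylated peptide substrate (in buffer containing 10 μM ATP) in HEPES pH 7.5/MgCl2/DTT, 1 h RT. Product was captured on Neutravidin, detected with HRP anti-phosphotyrosine (PY99)/TMB, OD 450/650 nm. Triplicate 16-point half-log series from 200 μM gave IC50; otherwise % inhibition at 1 μM.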
For orientation: ELISA stands for enzyme-linked immunosorbent assay.
As to `CC(C)NC(=O)OC1CCn2c3ccccc3c3c4c(c5c6ccccc6n(c5c32)CC1)C(=O)NC4` (centres unmarked) [Cpd 180, 12,13-[3-(isopropyl-carbamoyloxy)-pentan-1,5-yl]-6,7,12,13-tetrahydro-5-oxo-5H-indolo[2,3-a]pyrrolo[3,4-c]carbazole], the IC50 was found to be 706 nM.

Consider `CC(C)NCc1ccc2c(c1)c1c3c(c4c5ccccc5n5c4c1n2CC(CO)C5)CNC3=O` (centres unmarked) [Cpd 213, 3-(isopropylaminomethyl)-12,13-(2-hydroxymethyl-propan-1,3-yl)-6,7,12,13-tetrahydro-5-oxo-5H-indolo[2,3-a]pyrrolo[3,4-c]carbazole], for which the IC50 was found to be 241 nM.

On to `O=C1NC(=O)c2c1c1c3ccccc3n3c1c1c2c2ccccc2n1CC(O)(C(=O)NCCCN1CCCC1=O)C(O)C3` (centres unmarked) [Cpd 127, 12,13-(2-{[3-(2-oxo-pyrrolidin-1-yl)prop-1-yl]carbamoyl}-2,3-dihydroxy-butan-1,4-yl)-12,13-dihydro-5,7-dioxo-6H-indolo[2,3-a]pyrrolo[3,4-c]carbazole], for which the IC50 came to 48 nM.

On to `O=C1NC(=O)c2c1c1c3ccccc3n3c1c1c2c2ccccc2n1CC(OC(=O)N1CCOCC1)C(O)C3` (centres unmarked) [Cpd 98, 12,13-[2-(morpholin-4-yl-carbonyloxy)-3-hydroxy-butan-1,4-yl]-12,13-dihydro-5,7-dioxo-6H-indolo[2,3-a]pyrrolo[3,4-c]carbazole], for which the 50% inhibitory concentration (IC50) was determined as 108 nM.

Take `O=C1NC(=O)c2c1c1c3ccccc3n3c1c1c2c2ccccc2n1CC(OC(=O)N1CCN(Cc2ccc4c(c2)OCO4)CC1)CC3` (centres unmarked) [Cpd 54, 12,13-(2-{[4-(benzo[1,3]dioxol-5-yl-methyl)piperazin-1-yl]carbonyloxy}-butan-1,4-yl)-12,13-dihydro-5,7-dioxo-6H-indolo[2,3-a]pyrrolo[3,4-c]carbazole]: the IC50 was 1000 nM.

As for `O=C1NCc2c1c1c3cc(OCCN4CCOCC4)ccc3n3c1c1c2c2ccccc2n1CC(O)C(O)C3` (centres unmarked) [Cpd 203, 3-(2-morpholin-4-yl-ethoxy)-12,13-(2,3-dihydroxy-butan-1,4-yl)-6,7,12,13-tetrahydro-5-oxo-5H-indolo[2,3-a]pyrrolo[3,4-c]carbazole], the IC50 was 618 nM.

With `CC(C)(C)OC(=O)NC1CCN(C(=O)OCC2Cn3c4ccccc4c4c5c(c6c7ccccc7n(c6c43)C2)C(=O)NC5)CC1` (centres unmarked) [Cpd 172, 12,13-(2-{[4-(t-butoxycarbonylamino)piperidin-1-yl]carbonyloxymethyl}-propan-1,3-yl)-6,7,12,13-tetrahydro-5-oxo-5H-indolo[2,3-a]pyrrolo[3,4-c]carbazole], the IC50 is 120 nM.

`CC1(C)O[C@H]2Cn3c4ccccc4c4c5c(c6c7ccccc7n(c6c43)C[C@@H]2O1)C(=O)NC5` [Cpd 16, 12,13-[(4S,5S)-2,2-dimethyl-[1,3]dioxolo[4,5-b]butan-1,4-yl]-6,7,12,13-tetrahydro-5-oxo-5H-indolo[2,3-a]pyrrolo[3,4-c]carbazole]: the IC50 came to 105 nM.

Turning to `O=C1NC(=O)c2c1c1c3ccccc3n3c1c1c2c2ccccc2n1CC(OC(=O)N1CCN(c2ccc(O)cc2)CC1)CC3` (centres unmarked) [Cpd 58, 12,13-(2-{[4-(4-hydroxy-phenyl)piperazin-1-yl]carbonyloxy}-butan-1,4-yl)-12,13-dihydro-5,7-dioxo-6H-indolo[2,3-a]pyrrolo[3,4-c]carbazole], the IC50 is 98 nM.

For the compound `CC(C)(C)OC(=O)CNC(=O)OC1CCn2c3ccccc3c3c4c(c5c6ccccc6n(c5c32)C1)C(=O)NC4=O` (centres unmarked) [Cpd 37, 12,13-{2-[(t-butoxycarbonylmethyl)carbamoyloxy]-butan-1,4-yl}-12,13-dihydro-5,7-dioxo-6H-indolo[2,3-a]pyrrolo[3,4-c]carbazole], the concentration for half-maximal inhibition (IC50) amounted to 4 nM.

Consider `CN1CCN(C(=O)OC2CCn3c4ccccc4c4c5c(c6c7ccccc7n(c6c43)C2)C(=O)NC5=O)CC1` (centres unmarked) [Cpd 51, 12,13-{2-[(4-methyl-piperazin-1-yl)carbonyloxy]-butan-1,4-yl}-12,13-dihydro-5,7-dioxo-6H-indolo[2,3-a]pyrrolo[3,4-c]carbazole], for which the IC50 was > 400 nM.

`O=C1NC(=O)c2c1c1c3ccccc3n3c1c1c2c2ccccc2n1CC(O)(C(=O)N1CCN(CC(=O)N2CCCC2)CC1)C(O)C3` (centres unmarked) [Cpd 133, 12,13-(2-{[4-(pyrrolidin-1-yl-carbonylmethyl)piperazin-1-yl]carbonyl}-2,3-dihydroxy-butan-1,4-yl)-12,13-dihydro-5,7-dioxo-6H-indolo[2,3-a]pyrrolo[3,4-c]carbazole]: the IC50 was determined as 54 nM.

In the case of `CCCNC(=O)OC1CCn2c3ccccc3c3c4c(c5c6ccccc6n(c5c32)C1)C(=O)NC4=O` (centres unmarked) [Cpd 38, 12,13-[2-(prop-1-ylcarbamoyloxy)-butan-1,4-yl]-12,13-dihydro-5,7-dioxo-6H-indolo[2,3-a]pyrrolo[3,4-c]carbazole], the IC50 was > 400 nM.

In the case of `C/C1=C(\C)Cn2c3ccccc3c3c4c(c5c6ccccc6n(c5c32)C1)CNC4=O` [Cpd 4, 12,13-(2,3-dimethyl-but-2-en-1,4-yl)-6,7,12,13-tetrahydro-5-oxo-5H-indolo[2,3-a]pyrrolo[3,4-c]carbazole], the half-maximal inhibitory concentration (IC50) is 72 nM.

Consider `O=C1NCc2c1c1c3ccccc3n3c1c1c2c2ccccc2n1CC(COC(=O)N1CC[C@@H](O)C1)C3` (stereo partly drawn) [Cpd 168, 12,13-(2-{[(3R)-3-hydroxy-pyrrolidin-1-yl]carbonyloxymethyl}-propan-1,3-yl)-6,7,12,13-tetrahydro-5-oxo-5H-indolo[2,3-a]pyrrolo[3,4-c]carbazole], for which the IC50 was determined as 346 nM.

Consider `O=C1NC(=O)c2c1c1c3ccccc3n3c1c1c2c2ccccc2n1CC(OC(=O)N1CCCNCC1)C(O)C3` (centres unmarked) [Cpd 111, 12,13-{2-[(hexahydro-1H-1,4-diazepin-1-yl)carbonyloxy]-3-hydroxy-butan-1,4-yl}-12,13-dihydro-5,7-dioxo-6H-indolo[2,3-a]pyrrolo[3,4-c]carbazole], for which the IC50 was 460 nM.

On to `CC(C)NC(=O)C1(O)Cn2c3ccccc3c3c4c(c5c6ccccc6n(c5c32)CC1O)C(=O)NC4=O` (centres unmarked) [Cpd 123, 12,13-[2-(isopropyl-carbamoyl)-2,3-dihydroxy-butan-1,4-yl]-12,13-dihydro-5,7-dioxo-6H-indolo[2,3-a]pyrrolo[3,4-c]carbazole], for which the IC50 worked out at 80 nM.

Turning to `O=C1NC(=O)c2c1c1c3ccccc3n3c1c1c2c2ccccc2n1CC(OC(=O)N1CCN(c2ccccc2)CC1)C(O)C3` (centres unmarked) [Cpd 102, 12,13-{2-[(4-phenyl-piperazin-1-yl)carbonyloxy]-3-hydroxy-butan-1,4-yl}-12,13-dihydro-5,7-dioxo-6H-indolo[2,3-a]pyrrolo[3,4-c]carbazole], the half-maximal inhibitory concentration (IC50) worked out at 81 nM.

As for `O=C1NC(=O)c2c1c1c3ccccc3n3c1c1c2c2ccccc2n1CC(O)(C(=O)N1CCOCC1)C(O)C3` (centres unmarked) [Cpd 121, 12,13-[2-(morpholin-4-yl-carbonyl)-2,3-dihydroxy-butan-1,4-yl]-12,13-dihydro-5,7-dioxo-6H-indolo[2,3-a]pyrrolo[3,4-c]carbazole], the half-maximal inhibitory concentration (IC50) amounted to 54 nM.

For the compound `O=C1NC(=O)c2c1c1c3ccccc3n3c1c1c2c2ccccc2n1CC(OC(=O)N1CCN(c2ccncc2)CC1)CC3` (centres unmarked) [Cpd 55, 12,13-{2-[(4-pyridin-4-yl-piperazin-1-yl)carbonyloxy]-butan-1,4-yl}-12,13-dihydro-5,7-dioxo-6H-indolo[2,3-a]pyrrolo[3,4-c]carbazole], the IC50 was found to be 314 nM.

The term IC50 denotes the concentration needed to halve the response being measured.
